Test system: HEK293 cells
Assay: Preliminary screening as mRNA vectors, EGFP mRNA transfection of HEK293 cells
Assay type: cell-based
Conditions: EGFP mRNA 50 ng per well, 96-well plates; percentage of GFP fluorescent cells relative to total number of cells (Hoechst)
Summary of the method: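 Each well of HEK293 cells received 50 ng of EGFP mRNA. Efficiency was expressed as percent GFP-expressing cells over Hoechst-defined total cell number.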

Compound	Absolute mRNA transfection efficiency in HEK293 cells [%]
CCCCCCCCCCSc1nc(NCCCCCCCCC)nc(NCCCN2CCOCC2)n1 [Compound D8S10N9]	0.1
CCCCCCCCCCCNc1nc(NCCCN2CCOCC2)nc(SCCCCCCCCCC)n1 [Compound D8S10N11]	0.1
CCCCCCCCCCCCNc1nc(NCCCN2CCOCC2)nc(SCCCCCCCCCC)n1 [Compound D8S10N12]	0.1
CCCCCCCCCCCCCNc1nc(NCCCN2CCOCC2)nc(SCCCCCCCCCC)n1 [Compound D8S10N13]	0.2
CCCCCCCCCCCCCCCNc1nc(NCCCN2CCOCC2)nc(SCCCCCCCCCC)n1 [Compound D8S10N15]	0.2
CCCCCCCCCCCCCCCCNc1nc(NCCCN2CCOCC2)nc(SCCCCCCCCCC)n1 [Compound D8S10N16]	0.2
CCCCCCCCCCCCCCCCCCNc1nc(NCCCN2CCOCC2)nc(SCCCCCCCCCC)n1 [Compound D8S10N18]	0.1
CCCCCCCCCCCSc1nc(NCCCCCC)nc(NCCCN2CCOCC2)n1 [Compound D8S11N6]	2.8
CCCCCCCCCCCSc1nc(NCCCCCCC)nc(NCCCN2CCOCC2)n1 [Compound D8S11N7]	3.1
CCCCCCCCCCCSc1nc(NCCCCCCCC)nc(NCCCN2CCOCC2)n1 [Compound D8S11N8]	0.3
CCCCCCCCCCCSc1nc(NCCCCCCCCC)nc(NCCCN2CCOCC2)n1 [Compound D8S11N9]	1.6
CCCCCCCCCCCNc1nc(NCCCN2CCOCC2)nc(SCCCCCCCCCCC)n1 [Compound D8S11N11]	3.6
CCCCCCCCCCCCNc1nc(NCCCN2CCOCC2)nc(SCCCCCCCCCCC)n1 [Compound D8S11N12]	1.0
CCCCCCCCCCCCCNc1nc(NCCCN2CCOCC2)nc(SCCCCCCCCCCC)n1 [Compound D8S11N13]	3.1
CCCCCCCCCCCCCCCNc1nc(NCCCN2CCOCC2)nc(SCCCCCCCCCCC)n1 [Compound D8S11N15]	0.5
CCCCCCCCCCCCCCCCNc1nc(NCCCN2CCOCC2)nc(SCCCCCCCCCCC)n1 [Compound D8S11N16]	0.7
CCCCCCCCCCCCCCCCCCNc1nc(NCCCN2CCOCC2)nc(SCCCCCCCCCCC)n1 [Compound D8S11N18]	0.6
CCCCCCCCCCCCSc1nc(NCCCCCC)nc(NCCCN2CCOCC2)n1 [Compound D8S12N6]	0.9
CCCCCCCCCCCCSc1nc(NCCCCCCC)nc(NCCCN2CCOCC2)n1 [Compound D8S12N7]	1.5
CCCCCCCCCCCCSc1nc(NCCCCCCCC)nc(NCCCN2CCOCC2)n1 [Compound D8S12N8]	2.3
CCCCCCCCCCCCSc1nc(NCCCCCCCCC)nc(NCCCN2CCOCC2)n1 [Compound D8S12N9]	2.3
CCCCCCCCCCCCSc1nc(NCCCCCCCCCCC)nc(NCCCN2CCOCC2)n1 [Compound D8S12N11]	0.4

Compound	Absolute mRNA transfection efficiency in HEK293 cells [%]
CCCCCCCCCCCCNc1nc(NCCCN2CCOCC2)nc(SCCCCCCCCCCCC)n1 [Compound D8S12N12]	0.0
CCCCCCCCCCCCCNc1nc(NCCCN2CCOCC2)nc(SCCCCCCCCCCCC)n1 [Compound D8S12N13]	0.3
CCCCCCCCCCCCCCCNc1nc(NCCCN2CCOCC2)nc(SCCCCCCCCCCCC)n1 [Compound D8S12N15]	0.0
CCCCCCCCCCCCCCCCNc1nc(NCCCN2CCOCC2)nc(SCCCCCCCCCCCC)n1 [Compound D8S12N16]	0.7
CCCCCCCCCCCCCCCCCCNc1nc(NCCCN2CCOCC2)nc(SCCCCCCCCCCCC)n1 [Compound D8S12N18]	1.1
CCCCCCCCCCCCCCSc1nc(NCCCCCC)nc(NCCCN2CCOCC2)n1 [Compound D8S14N6]	9.2
CCCCCCCCCCCCCCSc1nc(NCCCCCCC)nc(NCCCN2CCOCC2)n1 [Compound D8S14N7]	3.1
CCCCCCCCCCCCCCSc1nc(NCCCCCCCC)nc(NCCCN2CCOCC2)n1 [Compound D8S14N8]	1.6
CCCCCCCCCCCCCCSc1nc(NCCCCCCCCC)nc(NCCCN2CCOCC2)n1 [Compound D8S14N9]	2.3
CCCCCCCCCCCCCCSc1nc(NCCCCCCCCCCC)nc(NCCCN2CCOCC2)n1 [Compound D8S14N11]	2.0
CCCCCCCCCCCCCCSc1nc(NCCCCCCCCCCCC)nc(NCCCN2CCOCC2)n1 [Compound D8S14N12]	1.3
CCCCCCCCCCCCCCSc1nc(NCCCCCCCCCCCCC)nc(NCCCN2CCOCC2)n1 [Compound D8S14N13]	1.4
CCCCCCCCCCCCCCCNc1nc(NCCCN2CCOCC2)nc(SCCCCCCCCCCCCCC)n1 [Compound D8S14N15]	0.0
CCCCCCCCCCCCCCCCNc1nc(NCCCN2CCOCC2)nc(SCCCCCCCCCCCCCC)n1 [Compound D8S14N16]	0.4
CCCCCCCCCCCCCCCCCCNc1nc(NCCCN2CCOCC2)nc(SCCCCCCCCCCCCCC)n1 [Compound D8S14N18]	0.3
CCCCCCCCCCCCCCCSc1nc(NCCCCCC)nc(NCCCN2CCOCC2)n1 [Compound D8S15N6]	3.5
CCCCCCCCCCCCCCCSc1nc(NCCCCCCC)nc(NCCCN2CCOCC2)n1 [Compound D8S15N7]	2.2
CCCCCCCCCCCCCCCSc1nc(NCCCCCCCC)nc(NCCCN2CCOCC2)n1 [Compound D8S15N8]	2.9
CCCCCCCCCCCCCCCSc1nc(NCCCCCCCCC)nc(NCCCN2CCOCC2)n1 [Compound D8S15N9]	1.1
CCCCCCCCCCCCCCCSc1nc(NCCCCCCCCCCC)nc(NCCCN2CCOCC2)n1 [Compound D8S15N11]	1.1
CCCCCCCCCCCCCCCSc1nc(NCCCCCCCCCCCC)nc(NCCCN2CCOCC2)n1 [Compound D8S15N12]	0.3
CCCCCCCCCCCCCCCSc1nc(NCCCCCCCCCCCCC)nc(NCCCN2CCOCC2)n1 [Compound D8S15N13]	0.2

Compound	Absolute mRNA transfection efficiency in HEK293 cells [%]
CCCCCCCCCCCCCCCNc1nc(NCCCN2CCOCC2)nc(SCCCCCCCCCCCCCCC)n1 [Compound D8S15N15]	0.1
CCCCCCCCCCCCCCCCNc1nc(NCCCN2CCOCC2)nc(SCCCCCCCCCCCCCCC)n1 [Compound D8S15N16]	0.4
CCCCCCCCCCCCCCCCCCNc1nc(NCCCN2CCOCC2)nc(SCCCCCCCCCCCCCCC)n1 [Compound D8S15N18]	0.4
CCCCCCCCCCCCCCCCSc1nc(NCCCCCC)nc(NCCCN2CCOCC2)n1 [Compound D8S16N6]	18.2
CCCCCCCCCCCCCCCCSc1nc(NCCCCCCC)nc(NCCCN2CCOCC2)n1 [Compound D8S16N7]	17.7
CCCCCCCCCCCCCCCCSc1nc(NCCCCCCCC)nc(NCCCN2CCOCC2)n1 [Compound D8S16N8]	17.8
CCCCCCCCCCCCCCCCSc1nc(NCCCCCCCCC)nc(NCCCN2CCOCC2)n1 [Compound D8S16N9]	2.1
CCCCCCCCCCCCCCCCSc1nc(NCCCCCCCCCCC)nc(NCCCN2CCOCC2)n1 [Compound D8S16N11]	3.6
CCCCCCCCCCCCCCCCSc1nc(NCCCCCCCCCCCC)nc(NCCCN2CCOCC2)n1 [Compound D8S16N12]	0.9
CCCCCCCCCCCCCCCCSc1nc(NCCCCCCCCCCCCC)nc(NCCCN2CCOCC2)n1 [Compound D8S16N13]	0.1
CCCCCCCCCCCCCCCCSc1nc(NCCCCCCCCCCCCCCC)nc(NCCCN2CCOCC2)n1 [Compound D8S16N15]	0.0
CCCCCCCCCCCCCCCCNc1nc(NCCCN2CCOCC2)nc(SCCCCCCCCCCCCCCCC)n1 [Compound D8S16N16]	0.0
CCCCCCCCCCCCCCCCCCNc1nc(NCCCN2CCOCC2)nc(SCCCCCCCCCCCCCCCC)n1 [Compound D8S16N18]	0.0
CCCCCCCCCCCCCCCCCCSc1nc(NCCCCCC)nc(NCCCN2CCOCC2)n1 [Compound D8S18N6]	1.0
CCCCCCCCCCCCCCCCCCSc1nc(NCCCCCCC)nc(NCCCN2CCOCC2)n1 [Compound D8S18N7]	3.9
CCCCCCCCCCCCCCCCCCSc1nc(NCCCCCCCC)nc(NCCCN2CCOCC2)n1 [Compound D8S18N8]	0.5
CCCCCCCCCCCCCCCCCCSc1nc(NCCCCCCCCC)nc(NCCCN2CCOCC2)n1 [Compound D8S18N9]	0.2
CCCCCCCCCCCCCCCCCCSc1nc(NCCCCCCCCCCC)nc(NCCCN2CCOCC2)n1 [Compound D8S18N11]	1.9
CCCCCCCCCCCCCCCCCCSc1nc(NCCCCCCCCCCCC)nc(NCCCN2CCOCC2)n1 [Compound D8S18N12]	0.4
CCCCCCCCCCCCCCCCCCSc1nc(NCCCCCCCCCCCCC)nc(NCCCN2CCOCC2)n1 [Compound D8S18N13]	0.0
CCCCCCCCCCCCCCCCCCSc1nc(NCCCCCCCCCCCCCCC)nc(NCCCN2CCOCC2)n1 [Compound D8S18N15]	0.0

— patent US20230123334A1, “AMINO LIPID COMPOUND, PREPARATION METHOD THEREFOR, AND APPLICATION THEREOF” (SHENZHEN SHENXIN BIOTECHNOLOGY CO., LTD., priority 2020, published 2023)
